Measurements from publication PMC7712428, “Dimethoate Induces DNA Damage and Mitochondrial Dysfunction Triggering Apoptosis in Rat Bone-Marrow and Peripheral Blood Cells” (Toxics, 2020).
Where two headings read alike, the source gives them in different places.

Key:
[1] = system: bone marrow cells; settings: 40 mg/kgbw; for Total Aberrations (Mean ± SD): mean percentage; for MI (Mean ± SD): mitotic index mean percentage; for Structural Aberrations Assoc: number of associations; for Structural Aberrations Brk: number of breaks; for Structural Aberrations Del: number of deletions; for Structural Aberrations Dcn: number of dicentrics; for Structural Aberrations Frag: number of fragments; for Structural Aberrations Gp: number of gaps; for Structural Aberrations Ring: number of rings
Text: (§1) The experimental animals—Rattus norvegicus (Wistar strain; 8–10 weeks old; 120 ± 20 gm; males only) were acquired from Indian Institute of Integrative Medicine (IIIM-CSIR) (Jammu, India), quarantined, acclimatized and sacrificed as per standard practice conforming to the University Ethical Regulations. After acclimatization, rats were divided into five groups by stratified randomization with five animals per group. […] Distilled water was used to prepare dosing solutions of test agent and injected via intraperitoneal (i.p.) injection. At 24, 48 and 72 h post-dosing, 5 rats per duration were sacrificed and necessary tissues were isolated for different cytogenetic and molecular parameters. For CA assessment, separate experimental lot was used due to colchicine treatment.
Method of Preston et al. was used for preparing the metaphase chromosomes. An aqueous solution of Colchicine (4 mg/kgbw) was injected intraperitoneally 2 h prior to sacrificing the animal. Pre-warm KCL (0.075 M) solution was used to collect the bone marrow cells followed by incubation at 37 °C for 20 min, and then centrifuge at 1000 rpm for 10 min. After fixing the pellet in cold Cornoy’s fixative dropped onto clean pre-chilled glass slide in 30% ethanol and dried in air. 5% buffered Giemsa (pH 7.0) was used for staining. Chromosomal aberrations were analyzed on properly separated metaphases and finally photographed at 100× (Olympus U—PMTV microscope), using oil immersion. The metaphase cells from approximately 1000 cells per concentration per animal both in exposed and control replicates, expressed in percentage were considered for mitotic indices (MI).

[2] = system: peripheral blood cells; settings: Mean ± SD, 40 mg/kgbw
Text: as §1
Detection of DNA strand break was performed according to protocol of Singh et al. with some modifications. Briefly, blood was collected using Retro-orbital bleeding during euthanasia. 10μL whole blood cells obtained were mixed with 75 µL of 0.5% LMPA and layered onto frosted slides which was pre-coated with NMA. After putting cover slip, slides were kept for 5–10min. After gelling, removed cover slip gently and added a layer of 90 μL of LMPA. After replacing the cover slip, slides were placed on the slide tray (ice packs) till the agarose layer hardened (5–10 min). Following this, removed the cover slip and by gently immersing the slides in lysis buffer embedded cells were lysed. Cells lysis was performed in cold conditions for a minimum of 2 h in lysing solution.
Alkaline conditions (pH > 13) were used to perform the electrophoresis. After lysis, slides were subjected in electrophoretic buffer at 4 °C for 40 min to achieve the DNA denaturation that allow the DNA unwinding and the expression of alkali labile site. Electrophoresis was then carried out at 0.74 V/cm for 40 min (300 mA; 24 volts) at 4 °C by raising or lowering buffer. Thereafter, neutralization buffer (0.4 M Tris, 10 M HCl; pH = 7.5) were employed to wash the slides. Slides were stained by 80 μL of 1× Ethidium Bromide and excess stain was removed by dipping in chilled distilled water. Slides were examined at 40× magnification under fluorescence microscope coupled with a charge coupled device camera (Olympus).

[3] = system: Eosinophils; settings: 72 h treatment
Text: as §1
(§2) WBCs were isolated by following the protocol of Lone et al.. Blood was collected in 0.1% EDTA from retro-orbital plexus of rat, followed by incubation for 30 min. 500 µL of blood was then added to a centrifuge tube with 1 mL FACS lysing solution. The blood was incubated for 10 min and centrifuged (2000 rpm, 10 min) at 25 °C. After discarding the supernatant, pellet was washed in 1mL FACS lysing solution followed by centrifuging at 2000 rpm for 5 min. Repeated this step twice and then pellet was put in 500 µL of PBS, leaving only WBCs.
(§3) Protocol of Majeed and colleagues was employed for flow cytometric measurements of change in Ψm. […] Leukocytes were identified via forward and side scatter.

[4] = system: Neutrophils
Text: as §1, §2, §3

[5] = system: Platelets; settings: 72 h treatment

Q: Which “Total Aberrations (Mean ± SD)” value ([1]; 24 h) does the source give for O=P1(N(CCCl)CCCl)NCCCO1 (stereo not shown) [Cyclophosphamide, reference compound] here?
A: 17.50 ± 3.33 ***^,a %

Q: What about the “Total Aberrations (Mean ± SD)” value ([1]; 48 h) of the same compound?
A: 13.66 ± 2.56 ***^,a %

Q: What about the “Total Aberrations (Mean ± SD)” value ([1]; 72 h) of the same compound?
A: 10.66 ± 2.61 ***^,a %

Q: And the “MI (Mean ± SD)” value ([1]; 24 h)?
A: 1.52 ± 0.05 **^,a %

Q: And the “MI (Mean ± SD)” value ([1]; 48 h)?
A: 1.56 ± 0.05 **^,a %

Q: What about the “MI (Mean ± SD)” value ([1]; 72 h) of the same compound?
A: 1.63 ± 0.03 **^,a %

Q: And the “Structural Aberrations Assoc” value ([1]; 24 h)?
A: 9

Q: What about the “Structural Aberrations Assoc” value ([1]; 48 h) of the same compound?
A: 7

Q: And the “Structural Aberrations Assoc” value ([1]; 72 h)?
A: 4

Q: What about the “Structural Aberrations Brk” value ([1]; 24 h) of the same compound?
A: 14

Q: And the “Structural Aberrations Brk” value ([1]; 48 h)?
A: 12

Q: And the “Structural Aberrations Brk” value ([1]; 72 h)?
A: 9

Q: And the “Structural Aberrations Del” value ([1]; 24 h)?
A: 23

Q: And the “Structural Aberrations Del” value ([1]; 48 h)?
A: 18

Q: What about the “Structural Aberrations Del” value ([1]; 72 h) of the same compound?
A: 15

Q: And the “Structural Aberrations Dcn” value ([1]; 24 h)?
A: 25

Q: What about the “Structural Aberrations Dcn” value ([1]; 48 h) of the same compound?
A: 18

Q: What about the “Structural Aberrations Dcn” value ([1]; 72 h) of the same compound?
A: 14

Q: What about the “Structural Aberrations Frag” value ([1]; 24 h) of the same compound?
A: 26

Q: What about the “Structural Aberrations Frag” value ([1]; 48 h) of the same compound?
A: 21

Q: What about the “Structural Aberrations Frag” value ([1]; 72 h) of the same compound?
A: 19

Q: And the “Structural Aberrations Gp” value ([1]; 24 h)?
A: 20

Q: And the “Structural Aberrations Gp” value ([1]; 48 h)?
A: 16

Q: What about the “Structural Aberrations Gp” value ([1]; 72 h) of the same compound?
A: 13

Q: What about the “Structural Aberrations Ring” value ([1]; 24 h) of the same compound?
A: 8

Q: And the “Structural Aberrations Ring” value ([1]; 48 h)?
A: 6

Q: What about the “Structural Aberrations Ring” value ([1]; 72 h) of the same compound?
A: 3

Q: What about the “Olive Tail Moment” value ([2]; 24 h) of the same compound?
A: 12.52 ± 0.81 ***^,a

Q: And the “Tail Length (µm)” value ([2]; 24 h)?
A: 51.01 ± 3.71 ***^,a µm

Q: What about the “Olive Tail Moment” value ([2]; 48 h) of the same compound?
A: 11.28 ± 0.84 ***^,a

Q: And the “Tail Length (µm)” value ([2]; 48 h)?
A: 40.91 ± 2.86 ***^,a µm

Q: What about the “Olive Tail Moment” value ([2]; 72 h) of the same compound?
A: 8.23 ± 0.73 ***^,a

Q: And the “Tail Length (µm)” value ([2]; 72 h)?
A: 38.51 ± 1.05 ***^,a µm

Q: And the “MMP loss (membrane potential loss)” value [3]?
A: 54%

Q: What about the “P9: percentage of reduced mitochondrial membrane potential (MMP loss)” value ([4]; Figure 7, one experiment, Positive Control) of the same compound?
A: 10.9%

Q: What about the “MMP loss (membrane potential loss)” value ([4]; neutrophils, 72 h treatment) of the same compound?
A: 93.2%

Q: What about the “MMP loss (membrane potential loss)” value [5] of the same compound?
A: 81.1%
